# Tests used:
# [1] = tested on: human microvascular pericytes (PC); assay: PC on high stiffness polyacrylamide hydrogels treated with CCG-1423; α-SMA by flow cytometry, F-Actin staining; format: cell-based; details: for detectable quantities of α-SMA: high-stiffness hydrogels, versus naive PC; for detectable quantities of α-SMA / decrease in expression of α-SMA: flow cytometry; for decrease in expression of α-SMA: 1.0 nM
# Procedure: (§1) Human microvascular PC were isolated from a readily available and nearly inexhaustible source, human placental tissue, by microvascular segment explant outgrowth (Sava et al., Microcirculation, 2015, 22:54-67; Ayres-Sander et al., PLoS One, 2013, 8:e60025; Lauridsen et al., FASEB, 2014, 28:1166-1180; Maier et al., Microcirculation, 2010, 17:367-380). Human placental tissue was segmented, digested with collagenase, and the resulting cells were cultured in M199 (Gibco, Grand Island, NY, USA) medium supplemented with 20% FBS (Hyclone Laboratories, Logan, Utah, USA), and 1% penicillin-streptomycin (Gibco). Isolated pericytes were screened by flow cytometry against NG2 (H-300, Santa Cruz Biotechnology), CD90 (K-15, Santa Cruz), CD146 (P1H12, Biolegend, San Diego, Calif., USA), PDGFR-β (18A2, Santa Cruz), α-SMA (1A4, Santa Cruz), SMMHC (N-16, Santa Cruz), CD31 (C20, Santa Cruz), CD34 (581, Sigma) and CD45 (MEM-28, Sigma). As negative control, PC were incubated with isotype matched IgG. Samples were run on a Stratedigm S1000EXi Flow Cytometer (Stratedigm, San Jose, Calif. USA) and analyzed with FlowJo software (Tree Star, Ashland, Oreg., USA).
# (§2) Polyacrylamide hydrogels were prepared as previously described (Tse and Engler, Current protocols in cell biology, editorial board, Juan S. Bonifacino et al, 2010, Chapter 10, Unit 10-16). Briefly, amino-silanated coverslips were prepared by treatment with 0.1M NaOH, followed by 3-aminopropyltriethoxysilane (Sigma), and crosslinked with glutaraldehyde. Chloro-silanated coverslips were treated with dichlorodimethylsilane (Sigma). Polyacrylamide solutions of varying stiffness were prepared by altering the concentrations of acrylamide (Bio-Rad, Hercules, Calif., USA) and bis-acrylamide (Bio-Rad). Ammonium persulfate (Sigma) and tetramethylethylenediamine (Bio-Rad) were used as cross-linkers. The solution was placed between the chloro-silanated and amino-silanated coverslips and cross-linked under ambient lighting for 30 minutes, after which the amino-silanated slide, containing the hydrogel, was hydrated in PBS. The ECM components were chemically conjugated to the polyacrylamide hydrogel using the naturally occurring amine residues on the proteins. Sulfa-SANPAH (Thermo Fisher, Grand Island, N.Y., USA) was added in 50 mM 4-(2-hydroxyethyl)-1-piperazineethanesulfonic acid buffer (Sigma) and the hydrogels were placed under UV light (365 nm, 10 mW/cm^2) for 15 minutes, and incubated overnight with either 0.5 mg/mL solubilized healthy or IPF human lung ECM, or isolated ECM proteins (0.1 mg/mL human plasma fibronectin (Millipore, Billerica, Mass., USA) and 0.1 mg/mL collagen I (Sigma). Validation of protein conjugation was performed by tagging ECM with NHS-Fluorescein (5/6-carboxyfluorescein succinimidyl ester), dialyzing overnight, and rinsed extensively (Syed et al., J Vis, Exp, 2015, 97).
# (§3) For short term (7 day) differentiation studies, PC (passage 3-7) were seeded on healthy or IPF lung tissue slices, polyacrylamide hydrogels, or 25 mm glass coverslips (VWR) at 100×10^3 cells per sample and activated with control media (non-activated), or 1 ng/mL TGF-β1 (PeproTech, Rocky Hill, N.J., USA) for 7 days (18, 19). For bleomycin activation, the cells were activated with 1 μg/mL bleomycin sulfate (Cayman Chemical, Ann Arbor, Mich.) for 1 day and the media was replaced with non-activated media for the remaining 6 days (Sava et al., Microcirculation, 2015, 22:54-67; Sterling et al., J Bio Chem, 1983, 258:14438-14444). […]
# fibrosis in mouse models = details: in vivo mouse models; cited from earlier work
# [2] = tested on: idiopathic pulmonary fibrosis patients; details: IPF patients; cited from earlier work
# [3] = tested on: human microvascular pericytes (PC); assay: Short term (7 day) myofibroblast differentiation of PC on low, medium, high stiffness hydrogels with TGF-β1 or bleomycin activation; format: cell-based; details: 7 days
# Procedure: as §1, §2
# as §3, with “258:14438-14444). TGF-β1 and bleomycin concentrations were based on reports consistent with activation of fibroblasts (Sava et al., Microcirculation, 2015, 22:54-67; Maroni and Davis, Bio Reprod, 2012, 87:127). Treatment with CCG-1423 (Sigma) was performed at day 0 for the full 7 days, and labeled as early treatment, or at day 7 and performed for 7 days, and labeled as late treatment.” for “258:14438-14444).”
# [4] = low, medium, high stiffness hydrogels with fibronectin and collagen I, TGF-β1 1 ng/mL 7 days or bleomycin 1 μg/mL 1 day, flow cytometry
compound,measurement,setting,value
CC(ONC(=O)c1cc(C(F)(F)F)cc(C(F)(F)F)c1)C(=O)Nc1ccc(Cl)cc1 (stereo not shown) [CCG-1423],detectable quantities of α-SMA,"[1]; CCG-1423 treatment at day 0 of PC culture, P<0.001",significantly reduced
same,detectable quantities of α-SMA,"[1]; CCG-1423 treatment at day 7 of PC culture, P=0.039",significantly reduced
same,cell F-Actin architecture,"[1]; F-Actin staining, high stiffness hydrogel",did not alter
same,decrease in expression of α-SMA,"[1]; early time-point (day 0) treatment for 7 days, high stiffness hydrogel",38.2±4.2%
same,decrease in expression of α-SMA,"[1]; late time point (day 7) treatment for additional 7 days, high stiffness hydrogel",20.4±8.0%
same,prevention of fibrosis,fibrosis in mouse models,effective in preventing fibrosis
Cc1ccc(=O)n(-c2ccccc2)c1 [pirfenidone],decline in forced vital capacity,[2],reducing the decline in forced vital capacity
bleomycin sulfate,vimentin expression compared to non-activated PC on substrates of the same stiffness,[3]; [4],significantly increased
same,α-SMA expression compared to non-activated PC on substrates of the same stiffness,[3]; [4],significantly increased
same,cell area and elongation (aspect ratio),[3]; medium and high stiffness substrates,largest area and elongation
